The source made the active and inactive calls. The calls are words filed in the database; no cut-off is given here.
Biological target: T1, Chromaffin granule amine transporter (Homo sapiens, UniProt P54219)
T1 sequence (P54219 whole entry): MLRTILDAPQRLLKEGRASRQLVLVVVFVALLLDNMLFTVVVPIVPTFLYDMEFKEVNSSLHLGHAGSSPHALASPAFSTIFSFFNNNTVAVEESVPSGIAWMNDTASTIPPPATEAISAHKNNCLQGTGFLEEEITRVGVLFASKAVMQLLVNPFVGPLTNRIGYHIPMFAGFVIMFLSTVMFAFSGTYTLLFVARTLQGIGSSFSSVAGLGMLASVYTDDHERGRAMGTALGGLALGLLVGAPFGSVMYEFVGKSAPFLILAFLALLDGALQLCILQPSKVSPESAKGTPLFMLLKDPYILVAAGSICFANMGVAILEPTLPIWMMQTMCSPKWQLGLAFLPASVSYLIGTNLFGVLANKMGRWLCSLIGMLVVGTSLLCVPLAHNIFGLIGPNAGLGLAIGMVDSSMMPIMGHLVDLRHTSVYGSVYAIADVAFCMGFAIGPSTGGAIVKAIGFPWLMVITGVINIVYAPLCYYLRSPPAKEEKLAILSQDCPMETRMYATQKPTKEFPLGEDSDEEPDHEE
Assay: Substrate uptake and inhibition of the chromaffin granule amine transporter (VAT1, VMAT1, SLC18A1) as assessed by uptake of a fluorescent substrate (FFN206) in HEK-293 JumpIN-SLC18A1 cells (PubChem AID: 1794818)
Type: functional, cell-based, HEK293

| Structure (SMILES) | IC50 | EC50 |
| --- | --- | --- |
| COc1cc2c(cc1OC)C1CC(=O)C(CC(C)C)CN1CC2 (stereo not drawn) [TETRABENAZINE] | > 10 µM (inactive) |  |
| COC(=O)[C@H]1[C@H]2C[C@@H]3c4[nH]c5cc(OC)ccc5c4CCN3C[C@H]2C[C@@H](OC(=O)c2cc(OC)c(OC)c(OC)c2)[C@@H]1OC [RESERPINE] | 0.05 µM |  |
| CNc1ccc2c(CCN)cc(=O)oc2c1 |  | 2000 nM |

— ChEMBL document CHEMBL5209563, “FFN206 based assay for SLC18A1 using HEK-293 SLC18A1 OE cells” (2022)
